Data set [1] has as its system lymphoblasts of CDG-Ia diseases. In words: inhibition of incorporation of 2-[3H]mannose into cellular glycoconjugates ("radioactivity"). The settings on record: dose of 500 μM; for Radioactivity (inhibition, by competition, of the binding of 2-[3H]mannose-1 phosphate): percentage relative to the controls, lymphoblasts of CDG-Ia, 5 trials per product; for effectiveness in inhibiting the incorporation of radioactive mannose into glycoproteins (in words): lymphoblasts, comparison between products. Format: cell-based, human. The protocol: (§1) The compounds of formula I, II and III were tested as prodrugs (i.e. as intracellular sources of Man-1 P), on the one hand, in order to evaluate their toxicity and, on the other hand, in order to assess their capacity to inhibit the incorporation of 2-[^3H]mannose into cellular glycoconjugates. Indeed, while they can generate Man-1 P in cells, it will be in competition with 2-[^3H]mannose-1 phosphate for entering the pathway for biosynthesis of glycoproteins (see Eklund, E. A., et al. cited above).
(§2) The products were tested (5 trials per product and per dose) on lymphoblasts of CDG-Ia diseases and their activities (“radioactivity”, i.e. inhibition, by competition, of the binding of 2-[^3H]mannose-1 phosphate; and cell “toxicity”) were assessed as a percentage relative to the controls (10 trials).

The test system is the same in data set [2]. Description: cell toxicity on lymphoblasts. It is filed as cell-based. The settings on record: dose of 500 μM; for cell mortality / toxicity (in words): lymphoblasts, comparison with CP1, CP3 and CP6; for Toxicity (cell toxicity): percentage relative to the controls, lymphoblasts of CDG-Ia, 5 trials per product. The procedure: as §1, §2

Regarding `CC(=O)OC[C@H]1O[C@H](OP(=O)(OCOC(=O)C(C)(C)C)OCOC(=O)C(C)(C)C)[C@@H](OC(C)=O)[C@@H](OC(C)=O)[C@@H]1OC(C)=O` [CP1, di(pivaloyloxymethyl) (2,3,4,6-tetra-O-acetyl)-α-D-mannopyranosyl-1] phosphate], in data set [1], the “Radioactivity (inhibition, by competition, of the binding of 2-[3H]mannose-1 phosphate)” value worked out at 92%. In data set [2], the “cell mortality / toxicity (in words)” value is listed as “at least a doubling of cell mortality” and the “Toxicity (cell toxicity)” value came to 210%.

For `CC(C)(C)C(=O)OCOP(=O)(OCOC(=O)C(C)(C)C)O[C@H]1O[C@H](COC(=O)C(C)(C)C)[C@@H](OC(=O)C(C)(C)C)[C@H](OC(=O)C(C)(C)C)[C@@H]1OC(=O)C(C)(C)C` [CP3, di(pivaloyloxymethyl) (2,3,4,6-tetra-O-pivaloyl-α-D-manno-pyranosyl-1) phosphate], the “Radioactivity (inhibition, by competition, of the binding of 2-[3H]mannose-1 phosphate)” value in data set [1] amounted to 90%. For the same molecule, in data set [2], the “cell mortality / toxicity (in words)” value is on record as “at least a doubling of cell mortality” and the “Toxicity (cell toxicity)” value was found to be 205%.

Consider `CCOC(=O)OC[C@H]1O[C@H](OP(=O)(OCOC(C)=O)OCOC(C)=O)[C@@H](OC(=O)OCC)[C@@H](OC(=O)OCC)[C@@H]1OC(=O)OCC` [CP6, di(acetyloxymethyl) (2,3,4,6-tetra-O-ethyloxycarbonyl)-α-D-manno-pyranosyl-1) phosphate], for which, in data set [1], the “Radioactivity (inhibition, by competition, of the binding of 2-[3H]mannose-1 phosphate)” value is 91%. In data set [2], the “cell mortality / toxicity (in words)” value was “at least a doubling of cell mortality” and the “Toxicity (cell toxicity)” value is listed as 201%.

As to “Benzyl di(2,3,4,6-tetra-O-isobutyryl-α-D-mannopyranosyl-1) phosphate [Ex. 12]”, in data set [1], the “effectiveness in inhibiting the incorporation of radioactive mannose into glycoproteins (in words)” value was “less effective than CP1, CP3 and CP6”; the “Radioactivity (inhibition, by competition, of the binding of 2-[3H]mannose-1 phosphate)” value worked out at 25%. Moreover, in data set [2], the “cell mortality / toxicity (in words)” value is on record as “a lot less toxic” and the “Toxicity (cell toxicity)” value came out at 112%.

Turning to “Di(2,3,4,6-tetra-O-isobutyryl-α-D-mannopyranosyl-1) hydrogen phosphate [Ex. 4]”, in data set [1], the “effectiveness in inhibiting the incorporation of radioactive mannose into glycoproteins (in words)” value is “therapeutically less effective than Ex. 5, Ex. 11, Ex. 12 and Ex. 13”; the “Radioactivity (inhibition, by competition, of the binding of 2-[3H]mannose-1 phosphate)” value came out at 100%. In addition, in data set [2], the “cell mortality / toxicity (in words)” value was “less toxic” and the “Toxicity (cell toxicity)” value turned out to be 100%.

Values taken from US20090054353A1, “MANNOSYL-1 PHOSPHATES, PREPARATION METHOD AND THERAPEUTIC USE, IN PARTICULAR AGAINST THE CDG-IA SYNDROME” (priority 2006, published 2009).
